Test results from ChEMBL document CHEMBL3045199, “Synthesis of some (E)-6-[2-(furan-2-yl)ethenyl]-1,2,4-triazin-5-ones and their biological evaluation as antitumor agents” (2013).

What was measured:
Type in all cases: functional
HT-29 = test: Cytotoxicity against Homo sapiens (human) HT-29 cells after 48 hr by SRB assay; settings: HT-29, 48 h
MDA-MB-231 = test: Cytotoxicity against Homo sapiens (human) MDA-MB-231 cells after 48 hr by SRB assay; settings: MDA-MB-231, 48 h
SNB-19 = test: Cytotoxicity against Homo sapiens (human) SNB19 cells after 48 hr by SRB assay; settings: SNB-19, 48 h
Malme-3M = test: Cytotoxicity against Homo sapiens (human) MALME-3M cells after 48 hr by SRB assay
SK-OV-3 = test: Cytotoxicity against Homo sapiens (human) SKOV3 cells after 48 hr by SRB assay; settings: SK-OV-3, 48 h
Hs-578T = test: Cytotoxicity against Homo sapiens (human) Hs 578T cells after 48 hr by SRB assay
K562 = test: Cytotoxicity against Homo sapiens (human) K562 cells after 48 hr by SRB assay; settings: K562, 48 h
CAKI-1 = test: Cytotoxicity against Homo sapiens (human) Caki1 cells after 48 hr by SRB assay; settings: CAKI-1, 48 h
A498 = test: Cytotoxicity against Homo sapiens (human) A498 cells after 48 hr by SRB assay; settings: A498, 48 h
NCI-H226 = test: Cytotoxicity against Homo sapiens (human) NCI-H226 cells after 48 hr by SRB assay; settings: NCI-H226, 48 h
PC-3 = test: Cytotoxicity against Homo sapiens (human) PC3 cells after 48 hr by SRB assay; settings: PC-3, 48 h
EKVX = test: Cytotoxicity against Homo sapiens (human) EKVX cells after 48 hr by SRB assay
IGROV-1 = test: Cytotoxicity against Homo sapiens (human) IGROV1 cells after 48 hr by SRB assay; settings: IGROV-1, 48 h
SNB-75 = test: Cytotoxicity against Homo sapiens (human) SNB75 cells after 48 hr by SRB assay; settings: SNB-75, 48 h
TK-10 = test: Cytotoxicity against Homo sapiens (human) TK10 cells after 48 hr by SRB assay; settings: TK-10, 48 h
HCT-116 = test: Cytotoxicity against Homo sapiens (human) HCT116 cells after 48 hr by SRB assay; settings: HCT-116, 48 h
HCT-15 = test: Cytotoxicity against Homo sapiens (human) HCT15 cells after 48 hr by SRB assay; settings: HCT-15, 48 h
MCF7 = test: Cytotoxicity against Homo sapiens (human) MCF7 cells after 48 hr by SRB assay; settings: MCF7, 48 h
[1] = read-out: LC50 (the source's name)

SMILES: Nc1cc(-c2ccc(Cl)cc2)nn1-c1nc(=O)c(/C=C/c2ccco2)n[nH]1
- CC50 (HT-29; [1]): > 100 µM
- GI50 (HT-29; read-out: pGI50 (converted)): 7.76 µM
- LC50 (lethal concentration, 50%) (MDA-MB-231): > 100 µM
- TGI (MDA-MB-231): > 100 µM
- GI50 (MDA-MB-231; read-out: GI50): 13.9 µM
- GI50 (MDA-MB-231; read-out: pGI50 (converted)): 13.8 µM
- TGI (SNB-19): 69.4 µM
- GI50 (SNB-19; read-out: GI50): 5.81 µM
- CC50 (SNB-19; [1]): > 100 µM
- GI50 (SNB-19; read-out: pGI50 (converted)): 5.75 µM
- LC50 (Malme-3M): > 100 µM
- TGI (Malme-3M): 53.1 µM
- GI50 (Malme-3M; read-out: GI50): 11 µM
- GI50 (Malme-3M; read-out: pGI50 (converted)): 11 µM
- LC50 (SK-OV-3): > 100 µM
- TGI (SK-OV-3): 7.43 µM
- GI50 (SK-OV-3; read-out: GI50): 5.58 µM
- GI50 (SK-OV-3; read-out: pGI50 (converted)): 5.62 µM
- GI50 (Hs-578T): 8.51 µM
- LC50 (K562): > 100 µM
- TGI (K562): 23 µM
- GI50 (K562; read-out: GI50): 2.79 µM
- GI50 (K562; read-out: pGI50 (converted)): 2.75 µM
- LC50 (CAKI-1): > 100 µM
- TGI (CAKI-1): 4.6 µM
- GI50 (CAKI-1; read-out: GI50): 0.37 µM
- GI50 (CAKI-1; read-out: pGI50 (converted)): 0.372 µM
- LC50 (A498): > 100 µM
- TGI (A498): 6.62 µM
- GI50 (A498; read-out: GI50): 1.62 µM
- GI50 (A498; read-out: pGI50 (converted)): 1.62 µM
- LC50 (lethal concentration, 50% cell kill) (NCI-H226): > 100 µM
- TGI (NCI-H226): 75.6 µM
- GI50 (NCI-H226; read-out: GI50): 12.2 µM
- GI50 (NCI-H226; read-out: pGI50 (converted)): 12.3 µM
- LC50 (50% lethal concentration) (PC-3): > 100 µM
- TGI (PC-3): 56.2 µM
- GI50 (PC-3; read-out: GI50): 5.6 µM
- GI50 (PC-3; read-out: pGI50 (converted)): 5.62 µM
- TGI (EKVX): 31.1 µM
- GI50 (EKVX; read-out: GI50): 3.57 µM
- CC50 (EKVX; [1]): > 100 µM
- GI50 (EKVX; read-out: pGI50 (converted)): 3.55 µM
- LC50 (concentration killing 50% of cells) (IGROV-1): > 100 µM
- TGI (IGROV-1): 37.8 µM
- GI50 (IGROV-1; read-out: GI50): 4.89 µM
- GI50 (IGROV-1; read-out: pGI50 (converted)): 4.9 µM
- TGI (SNB-75): 37.2 µM
- GI50 (SNB-75; read-out: GI50): 10.6 µM
- CC50 (SNB-75; [1]): > 100 µM
- GI50 (SNB-75; read-out: pGI50 (converted)): 10.7 µM
- LC50 (TK-10): > 100 µM
- TGI (TK-10): 23.1 µM
- GI50 (TK-10; read-out: GI50): 3.64 µM
- GI50 (TK-10; read-out: pGI50 (converted)): 3.63 µM
- TGI (HCT-116): 15.6 µM
- GI50 (HCT-116; read-out: GI50): 2.92 µM
- CC50 (HCT-116; [1]): > 100 µM
- GI50 (HCT-116; read-out: pGI50 (converted)): 2.88 µM
- TGI (HCT-15): > 100 µM
- GI50 (HCT-15; read-out: GI50): 1.89 µM
- CC50 (HCT-15; [1]): > 100 µM
- GI50 (HCT-15; read-out: pGI50 (converted)): 1.91 µM
- LC50 (concentration killing 50% of cells) (MCF7): > 100 µM
- TGI (MCF7): 50.4 µM
- GI50 (MCF7; read-out: GI50): 4.05 µM
- GI50 (MCF7; read-out: pGI50 (converted)): 4.07 µM
